In US12570709B2, “Self-assembling peptide amphiphiles displaying a transforming growth factor beta 1 (TGF-ß1) mimetic epitope” (Northwestern University, priority 2021, dated 2026):
Bridge positions count the residues as written; N and C are the ends. Ends that are not written are not given here. I, II: the chains in the order shown. * marks the point of attachment. Palmitoyl = CCCCCCCCCCCCCCCC(=O)*

Legend:
[1] = system: Smad2 phosphorylation (intracellular TGF-β1 signaling) in human chondrocytes; assay: Western blot of phosphorylated Smad2 after 4 h treatment; format: cell-based; conditions: for activation of p-Smad2 with addition of pan-TGF-β-neutralizing antibody 1D11: with vs without 1D11
Method: (§1) For western blot of 4 h PA treatments, cells were seeded in 6-well plates at a density of 600,000 cells/well and cultured for 24 h. […] Cells were then treated with PA in solution for 4 h in vitro. For western blot of 3-day PA treatments, cells were seeded in 6-well plates at a density of 230,000 cells/well and cultured for 24 h. Cells were then treated with PA in solution for 3 days in vitro.
(§2) Protein was extracted from cells using Halt Protease and Phosphatase Inhibitor Cocktail (Thermo Scientific) and a BCA assay (Thermo Scientific) was performed to determine protein content of each sample. Cell protein was loaded into and separated using a 4-20% SDS-PAGE gel (Bio-Rad). It was then electrotransferred from the gel to a nitrocellulose membrane (Bio-Rad). The membranes were blocked with 10% milk solution (Bio-Rad) for 30 minutes followed by an overnight incubation with primary antibodies at 4° C. The following primary antibodies were used: rabbit anti-pSmad2 (1:1000, Cell Signaling), rabbit anti-Smad2 (1:1000, Cell Signaling), rabbit anti-Sox9 (1:500, Abcam), mouse anti-Aggrecan (1:500, ThermoFisher), rabbit anti-COMP/Cartilage oligomeric matrix protein (1:500, Abcam), mouse anti-Collagen II (1:500, ThermoFisher), and mouse anti-Actin (1:1000, Novus Bio). Membranes were then incubated with their corresponding secondary HRP-conjugated antibodies (1:1000, ThermoFisher). Protein signals were detected using Radiance Bioluminescent ECL substrate (Azure Biosystems). Densitometry analysis, standardized to total receptor content or actin as a control for protein loading, was performed using ImageJ software. For quantification, experimental triplicate samples were analyzed, and two different experiments were conducted.

[2] = Transverse-relaxation (T2) NMR spectroscopy of PA assemblies; format: physicochemical; conditions: backbone PA assemblies
Method: NMR spectra were acquired at 600 MHz on a Brucker Neo system with QCI-F cryoprobe. NMR spectra for PAs were recorded at 25° C. using TFA-d, H2O/D2O in 9/1 ratio (D2O contains 0.05 wt. % 3-(trimethylsilyl) propionic-2,2,3,3-d4 acid, sodium salt) as solvents. Chemical shifts are reported in part per million (ppm). The […] was 15 μs and typical spectra required 32 scans.
The spin-spin relaxation rates were measured using the Carr-Purcell-Gill-Meiboom pulse sequence with a delay time of 0.2 ms in a variable loop. The peak intensity data was fit to and exponential in the form:
[formula] where τ is the length of the delay time, R2 is the spin-spin relaxation rate and b are the baseline.^2 Cell Culture

[3] = Rheology of PA hydrogels (strain sweep, G′/G″ crossover); format: physicochemical; conditions: PA gels, 10 mol % co-assemblies
Method: Gels were made using 2 wt % PA solutions prepared as previously described, using 10 mol % co-assemblies of epitope PA with diluent PA. 12-well chamber slides (Ibidi) were coated with 0.01 mg/mL poly-D-lysine (Sigma-Aldrich) solution and incubated overnight at 37° C. The wells were washed three times with water and air-dried for at least 30 minutes. 120 μL of PA solution was pipetted evenly into the well and gelling solution comprised of 110 mM NaCl, 3 mM KCl, and 25 mM CaCl2 was pipetted dropwise on top of the PA solution. The gels were incubated at 37° C. for 30 minutes, and then excess gelling solution was removed.
Measurements were performed on an Anton Paar MCR302 rheometer with a 25 mm parallel-plate fixture. 120 μL of the PA/HA hybrid slurry was placed on the bottom plate and 30 μL of a 50 mM CaCl2/75 mM NaCl gelling solution was placed on the upper fixture. The fixture was lowered to a gap of 0.5 mm for 10 min during which time a 0.1% oscillatory strain was applied with a 10 rad/s angular frequency. The gap height was allowed to vary to keep the normal force at 0 N. Next, a strain sweep was performed at 10 rad/s from 0.1% to 100% strain to measure the strain to break the gel.

[4] = system: human chondrocytes encapsulated in PA hydrogels; assay: F-actin ICC and confocal microscopy of chondrocytes encapsulated in PA gels; format: cell-based; conditions: three days in vitro, equal concentrations of cells encapsulated
Method: (§3) Fixed samples were permeabilized and blocked in a solution of 0.1% (v/v) Triton X-100 and 1% normal horse serum (Invitrogen) for 2 hours at room temperature. Samples were incubated with primary antibodies overnight at 4° C. The following primary antibodies were used: rabbit anti-Sox9 (1:500, Abcam), mouse anti-Aggrecan (1:500, ThermoFisher), mouse anti-Collagen II (1:500, ThermoFisher), and mouse anti-Nuclei (1:500, Sigma-Aldrich). The next day, samples were incubated with AlexaFluor 488 secondary antibody, AlexaFluor 555 secondary antibody, Phalloidin AlexaFluor 488, and/or Phalloidin AlexaFluor 633 (1:1000, Invitrogen) for 2-3 h at room temperature. For 2D cell culture, samples were then incubated with DAPI (1:1000, Invitrogen) for 10 minutes at room temperature. If not already on a glass coverslip, samples were mounted with Immu-Mount (Thermo Scientific) and imaged on a Nikon A1R Spectral microscope. Image analysis was performed using ImageJ software.
Chondrocytes were trypsinized and resuspended in growth media for counting, and then pelleted and resuspended to 6×10^7 cells/mL in growth media. The cell solution was mixed 1:2 v/v with sterile PA solution prepared at 3 wt % in 30 mM NaCl. For gels also encapsulating rhTGF-β1 protein (R&D Systems), soluble protein was added to PA solutions after thermal annealing. 120 μL of PA/cell solution was mixed thoroughly by pipetting gently and then placed into PDL-coated 12-well chamber slides (Ibidi). Sterile gelling solution, comprised of 110 mM NaCl, 3 mM KCl, and 25 mM CaCl2, was pipetted dropwise on top of the PA/cell solution and the gels were incubated for 30 minutes at 37° C. Following incubation, excess gelling solution was removed and 250 μL of growth media was added to each well. The media was removed after 3 days for LDH viability assays as described above. For ICC, after 3 days of in vitro culture, gels were fixed in 4% paraformaldehyde for 30 minutes at room temperature.

[5] = Dynamic light scattering of TGF-β1 mimetic peptide; format: physicochemical; conditions: peptide alone, 100 mol %, 1 wt %, 25° C.
Method: DLS measurements were performed on a Malvern Zetasizer Nano ZSP light scattering spectrometer. The TGF-β1 mimetic peptide alone, without PA, was prepared at 1 wt % as previously described. During the sample measurement, the temperature was kept at 25° C. The sample was equilibrated for 30 seconds before each measurement was taken. The duration of each measurement was 10 seconds, and the measurement angle was 173° backscatter. The attenuator was determined by the instrument automatically, as was the number of accumulations for each run. Each measurement run was repeated 3 times.

[6] = system: collagen II, COMP, aggrecan and Sox9 in human chondrocytes; assay: Western blot of ECM proteins after three days treatment; format: cell-based; conditions: 10 μM, three days in vitro
Method: as §1, §2

[7] = system: collagen II, aggrecan and F-actin in human chondrocytes; assay: Immunocytochemistry staining and fluorescence intensity analysis after three days; format: cell-based; conditions: three days in vitro
Method: For immunocytochemistry (ICC), 12-mm glass coverslips were coated with sterile filtered 0.01 mg/mL poly-D-lysine (Sigma-Aldrich) solution and incubated overnight at 37° C. The coverslips were washed three times with sterile water and air-dried for at least 30 minutes. Cells were seeded on coverslips at a density of approximately 3,000 cells/coverslip and cultured for 24 h. Cells were then treated with PA in solution for 3 days in vitro. Following treatment, cells were fixed in 4% paraformaldehyde for 15 minutes at room temperature.
as §3

[8] = cited from earlier work

TGF PA-b: backbone PA SEQ ID NO: 8 conjugated to cyclic TGF-β1 mimetic peptide (SEQ ID NO: 1) by a linker; co-assembled with diluent Backbone PA-b (chain Palmitoyl-AEAEK-OH; peptide CESPLKRQC; disulfide II:1-II:9; not fully specified (some residues); also: co-assembled with diluent backbone PA-b)
activation of p-Smad2 with addition of pan-TGF-β-neutralizing antibody 1D11 [1]: effectively neutralized

C16-AAEE (Palmitoyl-AAEE-OH; SMILES CCCCCCCCCCCCCCCC(=O)N[C@@H](C)C(=O)N[C@@H](C)C(=O)N[C@@H](CCC(=O)O)C(=O)N[C@@H](CCC(=O)O)C(=O)O) [Backbone PA-a]
1H spin-spin (T2) relaxation rate of terminal alkyl methyl protons [2]: 3.67 ± 0.23 s⁻¹ | G′/G″ crossover % strain [3]: 7.10 ± 1.49% | G′/G″ crossover storage modulus [3]: 0.55 ± 0.13 kPa | cells within the bulk of the gel [4]: Far fewer cells were visible

CESPLKRQC (disulfide 1-9 (inferred)) [TGF-β1 mimetic peptide, reference compound]
hydrodynamic diameter of micelles [5]: approximately 2 nm | size of aggregates of micelles [5]: ~200 nm | p-Smad2 activation ([1]; 50 μM, 4 h, 10 mol % co-assemblies): no activation | ECM synthesis (collagen II, COMP, aggrecan, Sox9) [6]: low activation | upregulation of collagen II and aggrecan ([7]; 10 μM, ICC): little upregulation of either protein

C16-AEAE (Palmitoyl-AEAE-OH; SMILES CCCCCCCCCCCCCCCC(=O)N[C@@H](C)C(=O)N[C@@H](CCC(=O)O)C(=O)N[C@@H](C)C(=O)N[C@@H](CCC(=O)O)C(=O)O) [Backbone PA-b]
1H spin-spin (T2) relaxation rate of terminal alkyl methyl protons [2]: 20.49 ± 0.58 s⁻¹

rhTGF-β1: native recombinant human TGF-β1 (R&D Systems), positive control
activation of p-Smad2 with addition of pan-TGF-β-neutralizing antibody 1D11 [1]: effectively neutralized | aggrecan synthesis ([7]; 10 μM, ICC): significantly increased aggrecan synthesis at similar levels | chondrocyte phenotype (F-actin staining) [7]: maintained healthy chondrocyte phenotypes and prevented hypertrophy | half-life in its active form in vivo [8]: 2 to 3 min
